Consider 1 molecule from PMC13001051, “TRPA1-kinase axis polarization: Nepetalactone drives pest repulsion and predator attraction via divergent PKC/CaMKII signaling” (Journal of Advanced Research, 2025).

Holding throughout (test): Fluo-4 calcium flux in transfected HEK293T cells
The subject of one test is T1, PjTRPA1.
T1 construct: gene TRPA1; full-length in pcDNA3.1(+)-mCherry, HEK293T cells
The class given is cell-based, Propylea japonica. Particulars: agonist; DMSO as negative control. The source says:
Fluo-4 calcium flux in transfected HEK293T cells on PjTRPA1 | Concentration-response curves of nepetalactone-induced calcium signaling in HEK293T cells heterologously expressing HaTRPA1 or PjTRPA1

The subject of another test is T2, MuTRPA1.
T2 construct: gene TRPA1; full-length ORF (1403 aa, 16 ankyrin repeats) in pcDNA3.1(+)-mCherry, HEK293T cells
The class given is cell-based, Megalurothrips usitatus. Particulars: agonist; DMSO as negative control.

For a further test, the target named is T3, HaTRPA1 (Harmonia axyridis, UniProt Z9S2A3GZC9).
T3 construct: full-length in pcDNA3.1(+)-mCherry, HEK293T cells
T3 sequence (Z9S2A3GZC9 1-1276): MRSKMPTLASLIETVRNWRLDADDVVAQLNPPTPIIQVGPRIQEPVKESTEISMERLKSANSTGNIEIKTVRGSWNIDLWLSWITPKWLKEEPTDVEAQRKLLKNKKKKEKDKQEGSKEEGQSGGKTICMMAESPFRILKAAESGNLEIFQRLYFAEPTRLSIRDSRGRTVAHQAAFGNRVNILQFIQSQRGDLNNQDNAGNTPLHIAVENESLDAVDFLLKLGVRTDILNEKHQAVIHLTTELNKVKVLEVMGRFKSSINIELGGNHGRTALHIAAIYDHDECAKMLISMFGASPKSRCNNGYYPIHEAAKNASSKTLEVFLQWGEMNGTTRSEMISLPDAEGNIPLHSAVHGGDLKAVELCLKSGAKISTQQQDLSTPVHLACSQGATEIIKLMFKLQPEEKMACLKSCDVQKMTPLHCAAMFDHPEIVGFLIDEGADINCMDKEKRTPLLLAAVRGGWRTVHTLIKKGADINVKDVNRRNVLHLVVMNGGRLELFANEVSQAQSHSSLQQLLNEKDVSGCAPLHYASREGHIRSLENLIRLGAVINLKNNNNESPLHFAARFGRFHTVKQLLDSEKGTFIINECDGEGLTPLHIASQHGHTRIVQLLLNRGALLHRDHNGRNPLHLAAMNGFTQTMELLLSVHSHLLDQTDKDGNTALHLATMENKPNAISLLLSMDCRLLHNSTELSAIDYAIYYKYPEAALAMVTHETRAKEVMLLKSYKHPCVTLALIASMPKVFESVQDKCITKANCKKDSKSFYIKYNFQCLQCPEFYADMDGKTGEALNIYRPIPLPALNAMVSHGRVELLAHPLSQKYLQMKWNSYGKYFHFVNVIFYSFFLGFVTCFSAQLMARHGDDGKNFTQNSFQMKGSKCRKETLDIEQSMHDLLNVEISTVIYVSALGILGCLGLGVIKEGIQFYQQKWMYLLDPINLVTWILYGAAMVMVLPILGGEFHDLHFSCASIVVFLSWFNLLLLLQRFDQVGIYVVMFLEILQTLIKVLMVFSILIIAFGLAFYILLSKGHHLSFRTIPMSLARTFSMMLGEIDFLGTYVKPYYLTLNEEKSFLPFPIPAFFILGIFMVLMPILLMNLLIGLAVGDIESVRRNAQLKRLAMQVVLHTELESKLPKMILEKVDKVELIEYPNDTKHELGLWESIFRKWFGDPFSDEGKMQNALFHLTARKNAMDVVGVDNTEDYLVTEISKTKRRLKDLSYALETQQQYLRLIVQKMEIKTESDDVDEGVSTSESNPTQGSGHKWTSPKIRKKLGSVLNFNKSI
The class given is cell-based. The text has this:
Fluo-4 calcium flux in transfected HEK293T cells on HaTRPA1 | Concentration-response curves of nepetalactone-induced calcium signaling in HEK293T cells heterologously expressing HaTRPA1 or PjTRPA1

For a further test, the system named is T4, DcTRPA1.
T4 construct: gene TRPA1; full-length ORF (1073 aa, 14 ankyrin repeats) in pcDNA3.1(+)-mCherry, HEK293T cells
It is filed as cell-based, Diaphorina citri. The note with it: agonist; DMSO as negative control.

Take `CC1=COC(=O)C2C(C)CCC12` (stereo not shown) [nepetalactone]: the 50% effective concentration (EC50) is 128 µM in the test on PjTRPA1, 172 µM with MuTRPA1, 404 µM on HaTRPA1 and 698 µM in the test with DcTRPA1.
